By inhibition is commonly meant the percentage by which the read-out fell short of the control. In general, Ki refers to a dissociation constant, usually derived from enzyme kinetics or from competition with a known ligand. The low end stands for a stronger hold on the target, the high end for a looser hold on the target.

Where only a bound is given, the exact number is not on record here.

The source of these data is ChEMBL document CHEMBL4229453, “New lead elements for histamine H3 receptor ligands in the pyrrolo[2,3-d]pyrimidine class” (Bioorg Med Chem Lett, 2018).

Assay [1] concerns the target T1, Histamine H3 receptor (Homo sapiens, UniProt Q9Y5N1). Put plainly: Displacement of [3H]Nalpha-methylhistamine from human H3 receptor at 1 uM relative to control. (Loss of bound radioactivity is the signal in a displacement assay; it reports binding, not function.)
Assay [2] addresses Histamine H4 receptor (Homo sapiens) (UniProt Q9H3N8). Put plainly: Displacement of [3H]histamine from human H4 receptor at 1 uM relative to control.
The target in assay [3] is T1, Histamine H3 receptor. Put plainly: Displacement of [3H]Nalpha-methylhistamine from human H3 receptor.

Chain of Histamine H4 receptor (Homo sapiens) (Q9H3N8 whole entry): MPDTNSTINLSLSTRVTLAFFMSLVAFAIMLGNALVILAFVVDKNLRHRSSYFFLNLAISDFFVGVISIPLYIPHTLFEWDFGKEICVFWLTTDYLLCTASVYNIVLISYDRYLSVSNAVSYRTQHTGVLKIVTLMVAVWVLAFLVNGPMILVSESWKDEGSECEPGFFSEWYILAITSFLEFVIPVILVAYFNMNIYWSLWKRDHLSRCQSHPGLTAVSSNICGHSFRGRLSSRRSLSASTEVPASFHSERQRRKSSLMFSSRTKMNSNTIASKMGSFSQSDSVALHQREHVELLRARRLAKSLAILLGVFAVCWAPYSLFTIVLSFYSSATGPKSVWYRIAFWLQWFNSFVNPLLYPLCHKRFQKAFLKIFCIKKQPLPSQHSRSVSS
T1 sequence (Q9Y5N1 whole entry): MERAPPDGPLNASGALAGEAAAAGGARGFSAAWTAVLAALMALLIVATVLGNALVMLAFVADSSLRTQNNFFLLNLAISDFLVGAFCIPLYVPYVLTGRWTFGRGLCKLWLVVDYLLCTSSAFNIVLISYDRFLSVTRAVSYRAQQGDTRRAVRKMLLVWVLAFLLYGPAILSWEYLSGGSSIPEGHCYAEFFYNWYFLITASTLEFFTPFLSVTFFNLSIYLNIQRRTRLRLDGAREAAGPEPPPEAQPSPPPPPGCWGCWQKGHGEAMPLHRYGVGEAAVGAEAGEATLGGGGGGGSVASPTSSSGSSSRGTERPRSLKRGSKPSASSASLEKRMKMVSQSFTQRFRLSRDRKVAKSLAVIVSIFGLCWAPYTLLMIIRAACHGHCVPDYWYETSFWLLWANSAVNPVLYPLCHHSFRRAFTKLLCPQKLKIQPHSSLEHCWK

Take `Clc1nc(N2CCC(N3CCOCC3)CC2)c2ccn(Cc3ccccc3)c2n1`: the inhibition (at Histamine H3 receptor [1]; in assay [2]) was below 80% throughout. The molecule further gave a Ki on Histamine H3 receptor [3] of 1070 nM.
Take `Clc1nc(NCCN2CCOCC2)c2ccn(Cc3ccccc3)c2n1`: the inhibition (on Histamine H3 receptor [1]; in assay [2]) was below 80% each time.
Regarding `Clc1nc(N2CCC(N3CCCCC3)CC2)c2ccn(Cc3cccc4ccccc34)c2n1`, the inhibition is 95% on Histamine H3 receptor [1] and below 80% in assay [2]. For the same molecule, affinity at Histamine H3 receptor [3] was put at a Ki of 148 nM.
For `CN1CCN(c2nc(Cl)nc3c2ccn3Cc2ccc3ccccc3c2)CC1`, the inhibition (at Histamine H3 receptor [1]; in assay [2]) was below 80% each time.
In the case of `Clc1nc(NCCN2CCOCC2)c2ccn(Cc3ccc4ccccc4c3)c2n1`, the inhibition (on Histamine H3 receptor [1]; in assay [2]) was below 80% throughout.
Take `Clc1nc(N2CCC(N3CCCCC3)CC2)c2ccn(Cc3ccccc3)c2n1`: the results for the inhibition (at Histamine H3 receptor [1]; in assay [2]) were 96% and below 80%, respectively. On Histamine H3 receptor [3], the Ki was 490 nM.
Regarding `Clc1nc(NCCN2CCOCC2)c2ccn(Cc3cccc4ccccc34)c2n1`, the inhibition (at Histamine H3 receptor [1]; in assay [2]) was below 80% each time.
Consider `Clc1nc(N2CCC(N3CCOCC3)CC2)c2ccn(Cc3cccc4ccccc34)c2n1`, for which the inhibition (at Histamine H3 receptor [1]; in assay [2]) was below 80% each time.
With `CN1CCN(c2nc(Cl)nc3c2ccn3Cc2ccccc2)CC1`, the inhibition (on Histamine H3 receptor [1]; in assay [2]) was below 80% in each case.
Regarding `CN1CCN(c2nc(Cl)nc3c2ccn3Cc2cccc3ccccc23)CC1`, the inhibition (at Histamine H3 receptor [1]; in assay [2]) was below 80% in each case.
In the case of `Clc1nc(N2CCC(N3CCOCC3)CC2)c2ccn(Cc3ccc4ccccc4c3)c2n1`, the inhibition (on Histamine H3 receptor [1]; in assay [2]) was below 80% each time.
As to `Clc1nc(N2CCC(N3CCCCC3)CC2)c2ccn(Cc3ccc4ccccc4c3)c2n1`, the inhibition on Histamine H3 receptor [1] is 95%; in assay [2] it was below 80%. On Histamine H3 receptor [3], this molecule gave a Ki of 126 nM.
